# In US10059702B2, “Inhibitors of LC3/ATG3 interaction and their use in the treatment of cancer” (THE JOHNS HOPKINS UNIVERSITY, priority 2014, dated 2018):
# Assays:
# [1] = test system: MCF-7, a breast cancer cell line; test: Impedance assay (xCELLigence, Cell Index), MCF-7; type: cell-based; settings: for effect on cell impedance: MCF-7, 100 μM to 1.5 μM
# Experimental: (§1) PTA or Compound 10 were added ranging from 100 μM to 1.5 μM to the cells after […]. The apparent IC50 after 72 hours of drug treatment was calculated and is shown in the inset of each graph of the triplicate impedance measurement per concentration. The DMSO vehicle control is shown as dark red line.
# (§2) MCF-7 cells were maintained in RPMI media supplemented with 10% fetal bovine serum. HepG2 cells were maintained in Dulbecco's modified Eagle medium (DMEM, Invitrogen) media supplemented with 10% fetal bovine serum and 1×MEM non-essential amino acids. For cytotoxicity experiments, cells were plated on T-75 flasks and grown until they reached at 70-80% confluency.
# (§3) Cell proliferation was monitored in real-time cell electronic sensing (xCELLigence System, Acea Biosciences) through gold microelectrode arrays on the bottom of 96 E-Plates. 100 μl of corresponding culture media was added into each well of 96 E-Plates, which inserted into the station and background measurement was taken. Then, cells (5,000 cells/well in 100 μl) were seeded into 96 E-Plates containing 100 μl medium/well. After about 20 hours, 200 μl medium was discarded and replaced with 100 μl of fresh medium containing indicated amounts of compounds for each well. In the xCELLigence System the changes in cell number are detected as modifications in the measurement of electrical impedance and are represented as Cell Index (CI).
# (§4) To define the range of metastasizing cancer cell lines susceptible to PTA derivatives of the present invention, we can use the HUVEC electrical-impedance assay. Invasive tumor cell lines are monitored through electric impedance measurements of human umbilical vein endothelial cells (HUVEC) monolayers in the presence of PTA derivatives. […] The invasion potential of the tumor cell is measured by the change in cell impedance as the HUVEC monolayer junctions are compromised by the invading tumor cells. Cells can be monitored over multiple days while the real-time impedance is recorded. […]
# [2] = test system: HepG2, a hepatocarcinoma cell line; test: Impedance assay (xCELLigence, Cell Index), HepG2; type: cell-based; settings: for effect on cell impedance: HepG2, 100 μM to 1.5 μM
# Experimental: as §1, §2, §3, §4
# [3] = biological target: hLC3; test: SPR binding of purified hLC3 to PTA immobilized on an SPR chip; set-up: species or system human; settings: read-out: affinity of hLC3 to PTA on the SPR chip
# Description: (§5) FIGS. 2A-2C depict the properties of the PTA-binding site on hLC3. 2A) Energy-minimized docking pose of PTA to hLC3. The pyridinylthiazolamine ringsystem predominantly binds to the W-site of hLC3. 2B) Conservation of amino acids between hLC3 and Plasmodium Atg8. Shown in yellow sticks is the bound peptide of Atg3. The W-Site is highly conserved, whereas the L-site is less conserved, explaining the lower affinity of hLC3 to PTA (FIGS. 2A, 2B adapted from Hain et al. 2013). 2C) Direct binding interaction of purified hLC3 or PfAtg8 to PTA immobilized on a SPR chip to determine their respective affinities.
# (§6) In comparing the sequence conservation of this W-/L-site between PfAtg8 and hLC3, it is apparent that the W-site has maintained a higher degree of conservation, as indicated by the magenta patch in FIG. 2B. To test whether or not the W-/L-site of Atg8 was indeed the interaction area to which our small molecules bind, we performed SPR binding studies with different Atg8-homologs, essentially mimicking mutational studies in the environment of the W-/L-site. This allowed us to explore the key features of the binding site in a manner that was much more efficient than introducing multiple single point mutations for each protein of interest at a time.
# (§7) SPR studies were performed on PfAtg8 and hLC3 binding to the PTA molecule immobilized on an SPR chip. […]
# [4] = biological target: T1, PfAtg8 (Plasmodium falciparum, UniProt Q8IJK2); test: SPR binding of purified PfAtg8 to PTA immobilized on an SPR chip; settings: comparison of hLC3 with PfAtg8
# T1 sequence (Q8IJK2 1-124): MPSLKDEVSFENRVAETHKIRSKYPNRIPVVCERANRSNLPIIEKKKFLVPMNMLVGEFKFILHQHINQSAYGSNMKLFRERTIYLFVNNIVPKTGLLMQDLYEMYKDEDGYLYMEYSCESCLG
# Description: as §5, §6, §7
# [5] = test system: hLC3 with hAtg3 interaction; test: hLC3/hAtg3 protein-protein interaction in vitro; type: binding, human
# Experimental: Our structural understanding of how the hLC3 binds the PTA-scaffold combined with surface plasmon resonance (SPR)-interaction studies, has enabled the inventors to design the PTA-analogs of the present invention with low Koff-rates. […] These new PTA-analogs are tested in SPR-based assays with purified recombinant hLC3 and hAtg3 to assess their ability to prevent the protein-protein interaction. Newly emerging molecules from our efforts are subjected to dose-dependent cell based screening with our cancer line collection.
# About 120 PTA-homologs were identified in the PubChem database (pubchem.ncbi.nlm.nih.gov) that are available through commercial vendors. In a first assessment to determine which homologs to focus on initially, virtual library screening was performed with the known hLC3 structures (1UGM, 3ECI, 3WAL, 3WAO). Comparing the docking results from different structures of hLC3 allowed us to assemble a short list of nine high priority compounds (compounds 1-9). […] Two complementary assays will be utilized, the first assesses the small molecule's ability to block the protein-protein interaction of hLC3 with hAtg3. The second assay is used to directly measure the binding of the small molecule to immobilized hLC3 on an SPR chip, which will allow us to draw conclusions about the physical interaction between the two binding partners.
# [6] = test system: HCT8 colon cancer cells; test: PTA-susceptibility of HCT8 colon cancer cells: microscopy and anti-LC3 Western blot; type: cell-based, human; settings: 24 hours
# Description: FIG. 4 provides an anti-LC3 Western blot of PTA treated HCT8 colon cancer cells with corresponding Coomassie stained 4-20% SDS-PAGE. The arrows indicate the band used for quantification with ImageJ. The SDS gel indicates approximate equal amounts were loaded per lane.
# To be functional in autophagy processes, hLC3 undergoes two critical activation processes. First a C-terminal glycine has to be exposed through proteolytic cleavage by the […] protease Atg4. Second, a lipid, phosphatidylethanolamine (PE), is conjugated to the C-terminal glycine residue resulting in hLC3-PE (hLC3-II). The inventors previously discovered 4-formyl-N-(4-pyridin-2-yl-1,3-thiazol-2-yl)benzamide (PTA) as an autophagy inhibitor in their studies on the plasmodial system in search of protein-protein interaction inhibitors of the PfAtg8-PfAtg3 interaction, the homologous system in the malaria parasite. The lipidated form of either Atg8 or hLC3 (hLC3-II) can be resolved from the unlipidated form (hLC3-I) using SDS-PAGE due to their different migration speeds. Specific commercial antibodies for hLC3 detection were used in these studies to quantify the two species via Western blot in treated and untreated cancer cell lines.
# We used a DMSO-vehicle control. All experiments were carried out at 1% final DMSO concentration for 24 hours at 37° C. and 5% CO2. […] The DMSO control sample was trypsinized to detach the cells from the culture dish. All cells were collected and spun down before resuspending them in SDS-loading dye for SDS-PAGE and Western blot analysis. Commercial monoclonal antibodies directed against hLC3 (D3U4C Rabbit mAB) and GAPDH (14C10 Rabbit mAB) as loading control were used. The Western blot clearly distinguishes between the un-lipidated (hLC3-I) and lipidated (hLC3-II) form by their migration speed in the SDS-gel (FIG. 4). The lipidated form migrates faster in an SDS-gel due to its additional negative charge from the conjugated phospholipid. […] 0.5% DMSO will be used as a vehicle control and 33 nM Wortmannin as a positive control for autophagy inhibition.
# [7] = test system: HC-04 liver cells; test: Cytotoxicity in HC-04 liver cells; type: cell-based; settings: 30 μM PTA for 96 hours
# [8] = biological target: PfAtg8 (Plasmodium falciparum, UniProt Q8IJK2); test: Surface plasmon resonance (SPR): direct binding of purified PfAtg8 to PTA immobilized on an SPR chip; settings: W-/L-site, FIG. 3, read-out: PfAtg8 Kd (binding affinity to PTA)
# Description: as §5
# To maintain the identical view, residue differences were painted onto the PfAtg8 structure. Residues in the proximity of the W-/L-site of hLC3 lead to lower binding affinities of our current molecule targeting the Atg8-Atg3 interaction.
# as §6, with “This allowed us to explore the key features of the binding site in a manner that was much more efficient than introducing multiple single point mutations for each protein of interest at a time.” left out
Structure (SMILES),effect on cell impedance [1],effect on cell impedance [2],Kd [3] [µM],"binding affinity to immobilized PTA, hLC3 versus PfAtg8 [4]",prevention of protein-protein interaction of hLC3 with hAtg3 [5],"cell appearance by microscopy at lowest concentration ([6]; HCT8, 6.75 μM PTA)","hLC3 lipidation (hLC3-I / hLC3-II bands) in Western blot ([6]; HCT8, PTA treated)","cell appearance by microscopy ([6]; HCT8, about 100 μM to 6.25 μM PTA, 1% DMSO)",cytotoxic effect / tolerability [7],"IC50 ([1]; MCF7a, MCF-7, impedance, 100 μM to 1.5 μM, 72 hours, read-out: apparent IC50 after 72 hours of drug treatment) [µM]","IC50 ([2]; Homo sapiens, HepG2, impedance, 100 μM to 1.5 μM, 72 hours, read-out: apparent IC50 after 72 hours of drug treatment) [µM]",Kd [8] [µM]
COC(OC)c1ccc(C(=O)Nc2ncc(-c3ccccn3)s2)cc1 [Compound 10],concentration dependent effect,concentration dependent effect,–,–,–,–,–,–,–,–,–,–
"O=Cc1ccc(C(=O)Nc2nc(-c3ccccn3)cs2)cc1 [PTA, 4-formyl-N-(4-pyridin-2-yl-1,3-thiazol-2-yl)benzamide]",concentration dependent effect,concentration dependent effect,18,decrease of binding affinity for hLC3 versus PfAtg8,specifically prevents the protein-protein interaction of hLC3 with hAtg3,a few patches of attached cells still visible,accumulation of the slower migrating hLC3-I band is visible,"detached, blebbing cells with a concentration dependent phenotype",well tolerated,~18,~18,0.54
